# Molecular target: T1, RORc ligand binding domain (Homo sapiens, UniProt P51449)
# T1 construct: host or cells: E. coli
# T1 sequence (P51449 269-508 limits assumed): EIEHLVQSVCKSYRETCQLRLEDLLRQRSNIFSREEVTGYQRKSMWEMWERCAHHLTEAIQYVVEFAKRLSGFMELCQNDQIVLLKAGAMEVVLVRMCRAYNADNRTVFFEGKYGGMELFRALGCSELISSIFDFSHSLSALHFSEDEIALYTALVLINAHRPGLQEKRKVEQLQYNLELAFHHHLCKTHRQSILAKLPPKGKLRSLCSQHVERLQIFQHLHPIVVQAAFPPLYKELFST
# Test: In Vitro RORc Ligand Binding Assay
# Conditions: displacement of 25-[3H]hydroxycholesterol (6 nM), 0.6 ug/mL RORc receptor, 3 h at 25° C.
# Experimental: In Vitro RORc Ligand Binding Assay This assay was used to determine a compound's potency in inhibiting activity of RORc by determining, Kiapp, IC50, or percent inhibition values. […] On day of the assay, 100 uL of 0.05% CHAPS (in deionized H2O) was added to all wells of the GFB Unifilter plate and allowed soak for 1 h. A wash buffer of 50 mM HEPES (pH 7.4), 150 mM NaCl, and 5 mM MgCl2 was prepared to wash the filter plate. To prepare an assay buffer, BSA was added to the wash buffer to reach 0.01% and DTT was added to reach 1 mM. […] The 20× compound stocks were diluted in DMSO with Assay Buffer 4-fold to reach 5× the final test concentration in 25% DMSO (10 uL compound+30 uL Assay Buffer). Solutions were mixed by aspiration several times with a pipette set on 50 uL volume. For the assay, 10 uL of 5× compound stock solutions in 25% DMSO were added to the assay plate in duplicate. For two point screening, 10 mM stock compound solutions were diluted in DMSO to obtain 200 uM (20× the high test concentration) and then diluted 10-fold further to reach 20 uM (20× the low test concentration). The 20× stocks were diluted 4-fold with Assay Buffer (10 uL compound+30 uL Assay Buffer) to reach 5× the test concentrations (50 uM and 5 uM) and 10 uL were added to two assay plates for the duplicate wells. […] Add 20 uL to all wells to reach 6 nM final concentration in the assay. […] Stock receptor solution was diluted in assay buffer to obtain 1.5 ug/mL in Assay Buffer. 20 uL was added to all wells. For No Receptor samples, 20 uL Assay Buffer was substituted for receptor solution. […] Following addition to the wells, the plates were incubated 3 h at 25° C. Using a Packard Filtermate Harvester, the filter plate were washed 4 times following transfer of the incubated samples. Plates were dry-filtered completely (2 h at 50° C. or overnight at room temperature). 50 uL Microscint 0 was added to all wells and read on Topcount protocol Inverted. […] For NSB wells, 1 uM 25-hydroxycholesterol was also present.
row,Compound,IC50 [nM]
1,"CC(C)CN(Cc1ccc(OC(F)F)cc1)S(=O)(=O)c1ccc(N2CCN(S(C)(=O)=O)CC2)cc1 [Compound 72, N-(4-Difluoromethoxy-benzyl)-N-isobutyl-4-(4-methanesulfonyl-piperazin-1-yl)-benzenesulfonamide]",83
2,"CC(C)CN(c1ccccc1C(F)(F)F)S(=O)(=O)c1ccc(NC(=O)C2CCN(S(C)(=O)=O)CC2)cc1 [Compound 11, 1-Methanesulfonyl-piperidine-4-carboxylic acid {4-[isobutyl-(2-trifluoromethyl-phenyl)-sulfamoyl]-phenyl}-amide]",13
3,"CC(C)CN(c1ccc(F)cc1)S(=O)(=O)c1ccc(OC2CCN(S(C)(=O)=O)CC2)cc1 [Compound 3, N-(4-Fluoro-phenyl)-N-isobutyl-4-(1-methanesulfonyl-piperidin-4-yloxy)-benzenesulfonamide]",16
4,"CC(C)CN(c1cccc(Cl)c1)S(=O)(=O)c1ccc(N2CCN(S(C)(=O)=O)CC2)cc1F [Compound 27, N-(3-Chloro-phenyl)-2-fluoro-N-isobutyl-4-(4-methanesulfonyl-piperazin-1-yl)-benzenesulfonamide]",33
5,"CC(C)CN(c1cccc(Cl)c1)S(=O)(=O)c1ccc(OC2CCN(C(N)=O)CC2)cc1 [Compound 35, 4-{4-[(3-Chloro-phenyl)-isobutyl-sulfamoyl]-phenoxy}-piperidine-1-carboxylic acid amide]",108
6,"CC(C)CN(c1cccc(Cl)c1)S(=O)(=O)c1ccc(OC2CCN(S(=O)(=O)N(C)C)CC2)cc1 [Compound 39, 4-{4-[(3-Chloro-phenyl)-isobutyl-sulfamoyl]-phenoxy}-piperidine-1-sulfonic acid dimethylamide]",191
7,"CC(C)CN(c1cccc(Cl)c1)S(=O)(=O)c1ccc(N2CCN(S(C)(=O)=O)CC2)c(F)c1 [Compound 29, N-(3-Chloro-phenyl)-3-fluoro-N-isobutyl-4-(4-methanesulfonyl-piperazin-1-yl)-benzenesulfonamide]",36
8,"CC(C)CN([C@@H](C)c1ccccc1)S(=O)(=O)c1ccc(N2CCN(S(C)(=O)=O)CC2)cc1 [Compound 63, N-Isobutyl-4-(4-methanesulfonyl-piperazin-1-yl)-N-((S)-1-phenyl-ethyl)-benzenesulfonamide]",39
9,"CC(=O)N1CCN(c2ccc(S(=O)(=O)N(Cc3ccc(Cl)cc3)CC(C)C)cc2)CC1 [Compound 67, 4-(4-Acetyl-piperazin-1-yl)-N-(4-chloro-benzyl)-N-isobutyl-benzenesulfonamide]",87
10,"CC(C)CN(c1ccccc1Cl)S(=O)(=O)c1ccc(N2CCN(S(=O)(=O)N(C)C)CC2)cc1 [Compound 20, 4-{4-[(2-Chloro-phenyl)-isobutyl-sulfamoyl]-phenyl}-piperazine-1-sulfonic acid dimethylamide]",81
11,"CC(C)CN([C@@H](CO)c1ccccc1)S(=O)(=O)c1ccc(N2CCN(S(C)(=O)=O)CC2)cc1 [Compound 92, N-((R)-2-Hydroxy-1-phenyl-ethyl)-N-isobutyl-4-(4-methanesulfonyl-piperazin-1-yl)-benzenesulfonamide]",3100
12,"CC(C)CN(Cc1ccc(Cl)cc1)S(=O)(=O)c1ccc(NC2CCN(S(C)(=O)=O)CC2)cc1 [Compound 91, N-(4-Chloro-benzyl)-N-isobutyl-4-(1-methanesulfonyl-piperidin-4-ylamino)-benzenesulfonamide]",10
13,"CC(C)CN(c1ccc(F)cc1F)S(=O)(=O)c1ccc(OC2CCN(S(C)(=O)=O)CC2)cc1 [Compound 50, N-(2,4-Difluoro-phenyl)-N-isobutyl-4-(1-methanesulfonyl-piperidin-4-yloxy)-benzenesulfonamide]",9
14,"CC(C)CN(c1cccc(Cl)c1)S(=O)(=O)c1ccc(N[C@@H]2CCCN(S(C)(=O)=O)C2)cc1 [Compound 44, N-(3-Chloro-phenyl)-N-isobutyl-4-((R)-1-methanesulfonyl-piperidin-3-ylamino)-benzenesulfonamide]",117
15,"CC(=O)N1CCN(c2ccc(S(=O)(=O)N(c3cccc(Cl)c3)C(C)C)cc2)CC1 [Compound 28, 4-(4-Acetyl-piperazin-1-yl)-N-(3-chloro-phenyl)-N-isopropyl-benzenesulfonamide]",1600
16,"CN(C)S(=O)(=O)N1CCN(c2ccc(S(=O)(=O)N(Cc3ccccc3C(F)(F)F)CC(F)F)cc2)CC1 [Compound 85, 4-{4-[(2,2-Difluoro-ethyl)-(2-trifluoromethyl-benzyl)-sulfamoyl]-phenyl}-piperazine-1-sulfonic acid dimethylamide]",116
17,"CS(=O)(=O)N1CCC(Oc2ccc(S(=O)(=O)N(c3cccc(F)c3)C3CCC3)cc2)CC1 [Compound 4, N-Cyclobutyl-N-(3-fluoro-phenyl)-4-(1-methanesulfonyl-piperidin-4-yloxy)-benzenesulfonamide]",29
18,"CC(C)CN(c1cccc(Cl)c1)S(=O)(=O)c1ccc(N2CCC(O)CC2)cc1 [Compound 15, N-(3-Chloro-phenyl)-4-(4-hydroxy-piperidin-1-yl)-N-isobutyl-benzenesulfonamide]",771
19,"CC(C)CN(c1ccc(F)cc1)S(=O)(=O)c1ccc(C(=O)NC2CCN(S(C)(=O)=O)CC2)cc1 [Compound 12, 4-[(4-Fluoro-phenyl)-isobutyl-sulfamoyl]-N-(1-methanesulfonyl-piperidin-4-yl)-benzamide]",6100
20,"CC(=O)N1CCC(Nc2ccc(S(=O)(=O)N(CC(C)C)c3cccc(Cl)c3)cc2)CC1 [Compound 31, 4-(1-Acetyl-piperidin-4-ylamino)-N-(3-chloro-phenyl)-N-isobutyl-benzenesulfonamide]",258
21,"CC(C)CN(c1ccccc1Cl)S(=O)(=O)c1ccc(N2CCC(O)CC2)cc1 [Compound 16, N-(2-Chloro-phenyl)-4-(4-hydroxy-piperidin-1-yl)-N-isobutyl-benzenesulfonamide]",1300
22,"CC(C)CN(Cc1ccc(OC(F)(F)F)cc1)S(=O)(=O)c1ccc(NC2CCN(S(C)(=O)=O)CC2)cc1 [Compound 90, N-Isobutyl-4-(1-methanesulfonyl-piperidin-4-ylamino)-N-(4-trifluoromethoxy-benzyl)-benzenesulfonamide]",11
23,"CC(C)CN(c1cccc(Cl)c1)S(=O)(=O)c1ccc(N2CCN(S(=O)(=O)N(C)C)CC2)cc1 [Compound 19, 4-{4-[(3-Chloro-phenyl)-isobutyl-sulfamoyl]-phenyl}-piperazine-1-sulfonic acid dimethylamide]",62
24,"CC(C)CN(c1cccc(Cl)c1)S(=O)(=O)c1cccc(NC2CCN(S(C)(=O)=O)CC2)c1 [Compound 40, N-(3-Chloro-phenyl)-N-isobutyl-3-(1-methanesulfonyl-piperidin-4-ylamino)-benzenesulfonamide]",480
25,"CC(=O)N1CCN(c2ccc(S(=O)(=O)N(Cc3cccc(C(F)(F)F)c3)CC(C)C)cc2)CC1 [Compound 58, 4-(4-Acetyl-piperazin-1-yl)-N-isobutyl-N-(3-trifluoromethyl-benzyl)-benzenesulfonamide]",244
26,"CC(C)CN(c1cc(F)ccc1F)S(=O)(=O)c1ccc(OC2CCN(S(C)(=O)=O)CC2)cc1 [Compound 51, N-(2,5-Difluoro-phenyl)-N-isobutyl-4-(1-methanesulfonyl-piperidin-4-yloxy)-benzenesulfonamide]",8
27,"CC(C)CN(c1cccc(Cl)c1)S(=O)(=O)c1ccc(N2CCC(NS(C)(=O)=O)CC2)cc1 [Compound 23, N-(3-Chloro-phenyl)-N-isobutyl-4-(4-methanesulfonylamino-piperidin-1-yl)-benzenesulfonamide]",169
28,"COc1ccc(CN(CC(C)C)S(=O)(=O)c2ccc(N3CCN(S(C)(=O)=O)CC3)cc2)cc1 [Compound 66, N-Isobutyl-4-(4-methanesulfonyl-piperazin-1-yl)-N-(4-methoxy-benzyl)-benzenesulfonamide]",79
29,"CC(=O)N1CCN(c2ccc(S(=O)(=O)N(Cc3ccccc3C(F)(F)F)CC(C)(C)C)cc2)CC1 [Compound 88, 4-(4-Acetyl-piperazin-1-yl)-N-(2,2-dimethyl-propyl)-N-(2-trifluoromethyl-benzyl)-benzenesulfonamide]",39
30,"CC(=O)N1CCN(c2ccc(S(=O)(=O)N(Cc3ccccc3C(F)(F)F)C3(C)CCC3)cc2)CC1 [Compound 86, 4-(4-Acetyl-piperazin-1-yl)-N-(1-methyl-cyclobutyl)-N-(2-trifluoromethyl-benzyl)-benzenesulfonamide]",70
